Assay results: article PMC11494653, “Teixobactin “Swapmers” with L Tail Stereochemistry Retain Antibiotic Activity” (The Journal of Organic Chemistry, 2024)
Converted amounts (≈) assume the structure as drawn. Positions of bridges follow the written chain, without caps; N, C: chain ends. Non-standard residues stand in square brackets, D forms with d. Residues, ends and D or L forms follow the SMILES beside them. Chains are numbered I, II in the order given. d(aIle) = CC[C@H](C)[C@@H](N)C(=O)O; dNMeF = CN[C@H](Cc1ccccc1)C(=O)O; Nphe = O=C(O)CNCc1ccccc1

Assays:
Format in all cases: cell-based
[1] = system: Bacillus subtilis ATCC 6051; assay: microbe, parasite or virus in culture; details: for MIC Bacillus subtilis ATCC 6051 / MIC B. subtilis: ATCC 6051, 16 h
Description: (§1) We determined the MIC values of these teixobactin swapmer prodrugs against the Gram-positive bacteria Bacillus subtilis, Staphylococcus epidermidis, methicillin-susceptible Staphylococcus aureus (MSSA), and methicillin-resistant Staphylococcus aureus (MRSA) in a broth microdilution assay as described previously.[9],[10] We used the antibiotic vancomycin as a positive control and the Gram-negative bacterium Escherichia coli as a negative control. The MIC values for Lys10-teixobactin 1, Lys10-teixobactin prodrug 2, Arg10-teixobactin 6, and Arg10-teixobactin prodrug 7 are shown in Table 1 for comparison with the swapmer analogues.
(§2) We performed minimum inhibitory concentration (MIC) assays as previously described.[9] A concise procedure is detailed below.
(§3) Stock solutions of teixobactin analogues were prepared gravimetrically by dissolving an appropriate amount of peptide in 20 mg/mL sterile DMSO. The stock solutions were stored at −20 °C for subsequent experiments.
(§4) Bacillus subtilis (ATCC 6051), Staphylococcus epidermidis (ATCC 14990), methicillin-susceptible Staphylococcus aureus (MSSA) (ATCC 29213), and Escherichia coli (ATCC 10798) were cultured from glycerol stocks in Mueller-Hinton broth containing 0.002% polysorbate 80 overnight in a shaking incubator at 37 °C. Methicillin-resistant Staphylococcus aureus (MRSA) (ATCC 700698) was cultured from a glycerol stock in brain hearth infusion broth containing 0.002% polysorbate 80 overnight in a shaking incubator at 37 °C. After overnight incubation, each culture was diluted with the appropriate media (containing 0.002% polysorbate 80) to 1 × 10^6 colony-forming units (CFU)/mL as previously described.[12],[15],[16] Briefly, we have previously determined the CFU/mL for each bacterium at OD600 = 0.075 for 200 μL of bacterial culture in a 96-well plate. The OD600 of each overnight culture was determined, and then each culture was diluted to OD600 = 0.075. Cultures were further diluted to achieve 1 × 10^6 CFU/mL solutions.
(§5) Aliquots of the 20 mg/mL peptide stock solutions were diluted to make a 64 μg/mL solution in Mueller-Hinton broth containing 0.002% polysorbate 80 and a 64 μg/mL solution in brain heart infusion broth containing 0.002% polysorbate 80. The solutions were mixed by pipetting to ensure homogeneity. A 200-μL aliquot of a 64 μg/mL solution was transferred to a 96-well plate. 2-fold serial dilutions were made with media containing 0.002% polysorbate 80 across the 96-well plate to achieve a final volume of 100 μL in each well (initial concentrations ranging from 64 to 0.0625 μg/mL). A 100-μL aliquot of a 1 × 10^6 CFU/mL bacterial solution was added to each well in the series, resulting in final bacterial concentrations of 5 × 10^5 CFU/mL in each well. As 100 μL of bacteria were added to each well, the concentration of peptide was also diluted 2-fold (final concentrations ranging from 32 μg/mL to 0.03125 μg/mL). Each plate was covered with a lid and incubated at 37 °C for 16 h. The optical density measurements were measured at 600 nm using a 96-well UV–vis plate reader (MultiSkan GO, Thermo Scientific). The MIC values were taken as the lowest concentration that had no bacterial growth. MIC assays for each compound were performed in triplicate to ensure reproducibility.

[2] = system: Escherichia coli ATCC 10798; assay: microbe, parasite or virus in culture; details: for MIC Escherichia coli ATCC 10798: ATCC 10798, 16 h
Description: as §1, §2, §3, §4, §5

[3] = system: Staphylococcus aureus (MRSA) ATCC 700698; assay: microbe, parasite or virus in culture; details: for MIC Staphylococcus aureus (MRSA) ATCC 700698: ATCC 700698, 16 h
Description: as §1, §2, §3, §4, §5

[4] = system: Staphylococcus aureus (MSSA) ATCC 29213; assay: microbe, parasite or virus in culture; details: for MIC Staphylococcus aureus (MSSA) ATCC 29213: ATCC 29213, 16 h
Description: as §1, §2, §3, §4, §5

[5] = system: Staphylococcus epidermidis ATCC 14990; assay: microbe, parasite or virus in culture; details: for MIC Staphylococcus epidermidis ATCC 14990: ATCC 14990, 16 h
Description: as §1, §2, §3, §4, §5

all bacteria tested = assay: MIC broth microdilution assay, summary over all bacteria; details: all bacteria tested other than B. subtilis
Description: as §1, §2, §3
as §4, with “After overnight incubation, each culture was diluted with the appropriate media (containing 0.002% polysorbate 80) to 1 × 10^6 colony-forming units (CFU)/mL as previously described.[12],[15],[16]” left out, “Cultures were further diluted to achieve 1 × 10^6 CFU/mL solutions.” left out
Aliquots of the 20 mg/mL peptide stock solutions were diluted to make a 64 μg/mL solution in Mueller-Hinton broth containing 0.002% polysorbate 80 and a 64 μg/mL solution in brain heart infusion broth containing 0.002% polysorbate 80. […] The optical density measurements were measured at 600 nm using a 96-well UV–vis plate reader (MultiSkan GO, Thermo Scientific). […]

[6] = system: Gram-positive bacteria tested; details: 16 h
Description: as §1, §2, §3, §4
Aliquots of the 20 mg/mL peptide stock solutions were diluted to make a 64 μg/mL solution in Mueller-Hinton broth containing 0.002% polysorbate 80 and a 64 μg/mL solution in brain heart infusion broth containing 0.002% polysorbate 80. The solutions were mixed by pipetting to ensure homogeneity. A 200-μL aliquot of a 64 μg/mL solution was transferred to a 96-well plate. 2-fold serial dilutions were made with media containing 0.002% polysorbate 80 across the 96-well plate to achieve a final volume of 100 μL in each well (initial concentrations ranging from 64 to 0.0625 μg/mL). […] The optical density measurements were measured at 600 nm using a 96-well UV–vis plate reader (MultiSkan GO, Thermo Scientific). […]

Row | Structure (SMILES) | MIC Bacillus subtilis ATCC 6051 [1] | antibiotic activity in words against B. subtilis ([1]; concentration range tested up to 32 μg/mL) | MIC Escherichia coli ATCC 10798 [2] | MIC Staphylococcus aureus (MRSA) ATCC 700698 [3] | MIC Staphylococcus aureus (MSSA) ATCC 29213 [4] | MIC Staphylococcus epidermidis ATCC 14990 [5] | antibiotic activity in words against all other bacteria tested (all bacteria tested) | MIC B. subtilis [1] | MIC values against the Gram-positive bacteria tested [6] | fold reduced activity compared to the unswapped analogues 1, 2, 6, and 7 [6] | MIC ([1]; Bacillus subtilis, ATCC6051, 16 h, read-out: MIC Bacillus subtilis ATCC 6051) | MIC ([2]; Escherichia coli, ATCC10798, 16 h, read-out: MIC Escherichia coli ATCC 10798) | MIC ([3]; Staphylococcus aureus, 16 h, read-out: MIC Staphylococcus aureus (MRSA) ATCC 700698) | MIC ([4]; Staphylococcus aureus, 16 h, read-out: MIC Staphylococcus aureus (MSSA) ATCC 29213) | MIC ([5]; Staphylococcus epidermidis, ATCC14990, 16 h, read-out: MIC Staphylococcus epidermidis ATCC 14990)
1 | CC[C@H](C)[C@H](NC(=O)CNCc1ccccc1)C(=O)N[C@@H](CO)C(=O)N[C@H](C(=O)N[C@@H](CCC(N)=O)C(=O)N[C@H](C(=O)OC[C@H](N)C(=O)N[C@H]1C(=O)N[C@@H](C)C(=O)N[C@@H](CCCCN)C(=O)N[C@@H]([C@@H](C)CC)C(=O)O[C@H]1C)[C@@H](C)CC)[C@@H](C)CC [compound 5, N-Bn-Gly1,Ile4,Gln5,[Ile6-O-Ser7],Lys10-teixobactin] (I: H-[Nphe]ISIQI / II: H-S[dT]AKI; ester I:C-II:1, II:2-II:C) | 32 µg/mL (≈ 26.6 µM) | only very weakly active | >32 µg/mL | >32 µg/mL | >32 µg/mL | >32 µg/mL | inactive | – | – | – | – | – | – | – | –
2 | CC[C@H](C)[C@H](NC(=O)[C@@H](Cc1ccccc1)NC)C(=O)N[C@@H](CO)C(=O)N[C@H](CCC(N)=O)C(=O)N[C@@H](C(=O)N[C@H](C(=O)N[C@@H](CO)C(=O)N[C@H]1C(=O)N[C@@H](C)C(=O)N[C@@H](CCCNC(=N)N)C(=O)N[C@@H]([C@@H](C)CC)C(=O)O[C@H]1C)[C@@H](C)CC)[C@@H](C)CC [compound 6, Arg10-teixobactin] | ≤0.0313 µg/mL | – | >32 µg/mL | 2 µg/mL (≈ 1.61 µM) | 2 µg/mL (≈ 1.61 µM) | 0.5 µg/mL (≈ 0.402 µM) | – | ≤ 0.0625 µg/mL | – | – | – | – | – | – | –
3 | CC[C@H](C)[C@H](NC(=O)[C@@H](Cc1ccccc1)NC)C(=O)N[C@@H](CO)C(=O)N[C@H](CCC(N)=O)C(=O)N[C@@H](C(=O)N[C@H](C(=O)OC[C@H](N)C(=O)N[C@H]1C(=O)N[C@@H](C)C(=O)N[C@@H](CCCNC(=N)N)C(=O)N[C@@H]([C@@H](C)CC)C(=O)O[C@H]1C)[C@@H](C)CC)[C@@H](C)CC [compound 7, [Ile6-O-Ser7],Arg10-teixobactin] (I: H-[dNMeF]IS[dQ][d(aIle)]I / II: H-S[dT]ARI; ester I:C-II:1, II:2-II:C) | 0.0625 µg/mL (≈ 0.0502 µM) | – | >32 µg/mL | 1 µg/mL (≈ 0.804 µM) | 2 µg/mL (≈ 1.61 µM) | 0.5 µg/mL (≈ 0.402 µM) | – | ≤ 0.0625 µg/mL | – | – | – | – | – | – | –
4 | CC[C@H](C)[C@H](NC(=O)[C@H](CO)NC(=O)[C@@H](NC(=O)[C@@H](Cc1ccccc1)NC)[C@@H](C)CC)C(=O)N[C@@H](CCC(N)=O)C(=O)N[C@H](C(=O)OC[C@H](N)C(=O)N[C@H]1C(=O)N[C@@H](C)C(=O)N[C@@H](CCCNC(=N)N)C(=O)N[C@@H]([C@@H](C)CC)C(=O)O[C@H]1C)[C@@H](C)CC [compound 8, Ile4,Gln5,[Ile6-O-Ser7],Arg10-teixobactin] (I: H-[dNMeF]ISIQI / II: H-S[dT]ARI; ester I:C-II:1, II:2-II:C) | 2 µg/mL (≈ 1.61 µM) | – | >32 µg/mL | 4 µg/mL (≈ 3.21 µM) | 4 µg/mL (≈ 3.21 µM) | 2 µg/mL (≈ 1.61 µM) | – | – | 2 to 4 µg/mL | 2–4 fold | – | – | – | – | –
5 | CN[C@H](CC(C)C)C(=O)N[C@H]1C(=O)N[C@@H](CC(N)=O)C(=O)N[C@H]2C(=O)N[C@H]3C(=O)N[C@H](C(=O)N[C@H](C(=O)O)c4cc(O)cc(O)c4-c4cc3ccc4O)[C@H](O)c3ccc(c(Cl)c3)Oc3cc2cc(c3O[C@@H]2O[C@H](CO)[C@@H](O)[C@H](O)[C@H]2O[C@H]2C[C@](C)(N)[C@H](O)[C@H](C)O2)Oc2ccc(cc2Cl)[C@H]1O [vancomycin, reference compound] | – | – | – | – | – | – | – | – | – | – | 0.125 to 0.25 µg/mL (≈ 0.0863 to 0.173 µM) | > 32 µg/mL | 4 µg/mL (≈ 2.76 µM) | 1 to 2 µg/mL (≈ 0.69 to 1.38 µM) | 1 to 2 µg/mL (≈ 0.69 to 1.38 µM)
